# Test results reported in the OPERA property sets (Mansouri et al. 2018).
row,Compound,logP
1,O=[N+]([O-])c1ccc(C=NNP(=O)(N2CC2)N2CC2)cc1,0.45
2,O=[N+]([O-])c1ccc(C=NN(c2ccccc2)P(=O)(N2CC2)N2CC2)cc1,0.57
3,O=P(NN=Cc1ccc(Cl)cc1)(N1CC1)N1CC1,0.13
4,CN(N=Cc1ccc([N+](=O)[O-])cc1)P(=O)(N1CC1)N1CC1,0.51
5,COc1ccc(C=NN(C)P(=O)(N2CC2)N2CC2)cc1,0.47
6,O=[N+]([O-])c1ccc(N(N=Cc2ccccc2)P(=O)(N2CC2)N2CC2)cc1,0.57
7,O=P(N1CC1)(N1CC1)N(N=Cc1ccc(Cl)cc1)c1ccccc1,0.35
8,O=P(NN=Cc1ccccc1)(N1CC1)N1CC1,0.48
9,CC(C)=NNP(=O)(N1CC1)N1CC1,0.45
10,CN(N=Cc1ccccc1)P(=O)(N1CC1)N1CC1,0.51
11,CC(C)=NN(C)P(=O)(N1CC1)N1CC1,0.51
12,CN(N=Cc1ccc(F)cc1)P(=O)(N1CC1)N1CC1,0.48
13,CC(C)=NN(c1ccccc1)P(=O)(N1CC1)N1CC1,0.57
14,COc1ccc(C=NNP(=O)(N2CC2)N2CC2)cc1,0.42
15,COc1ccc(C=NN(c2ccccc2)P(=O)(N2CC2)N2CC2)cc1,0.57
16,O=P(NN=Cc1ccc(F)cc1)(N1CC1)N1CC1,0.45
17,O=P(N1CC1)(N1CC1)N(N=Cc1ccc(F)cc1)c1ccccc1,0.56
18,CN(N=Cc1ccc(Br)cc1)P(=O)(N1CC1)N1CC1,0.31
19,O=P(N1CC1)(N1CC1)N(N=Cc1ccccc1)c1ccccc1,0.56
